Reference: US20110027388A1 (priority 2009, published 2011)
pIC50: −log10 of the molar value. Like-named read-outs stand apart in the source and are kept apart here.

Assays:
HIV-1 Ba-L isolate = format: cell-based; details: read-out: IC50 (50% inhibition of virus replication)
HIV-1 NL4-3 isolate = format: cell-based; details: read-out: IC50 (50% inhibition of virus replication)
HIV-1 = format: cell-based
Zaire Ebola GFP virus [1] = format: cell-based
Zaire Ebola GFP virus [2] = format: cell-based; remark: listed apart in the source
Ebola virus = system: Ebola virus; set-up: species or system mice; details: mouse, in vivo, ip, 8 mg/kg
Zaire Ebola GFP virus [3] = details: read-out: IC50 for the fit
A549 cells [4] = system: A549 cells
A549 cells [5] = system: A549 cells; remark: listed apart in the source
[6] = mouse, in vivo
Sindbis virus = details: cited from earlier work

Work on `N.N.N.N.N.N.[Cl-].[Cl-].[Cl-].[Co+3]` [Cohex, Hexaamminecobalt(III) chloride] yielded a pIC50 (HIV-1 Ba-L isolate) of 4.47, a pIC50 (HIV-1 NL4-3 isolate) of 4.54 and a pIC50 (HIV-1) of 4.51. For the same compound, the “suppression of viral expression (GFP)” value (Zaire Ebola GFP virus [1]) was ~100%, the “suppression of viral expression (GFP)” value (Zaire Ebola GFP virus [2]) was ~100% and the “survival versus PBS treatment” value (Ebola virus) was “improved survival rates”. The CC50 (PBMCs) was 833 µM, the “concentrations at which cytotoxicity was observed” value (PBMCs) was “above 100 μM” and the pIC50 (Zaire Ebola GFP virus [3]) was 3.42. The “concentration until which no toxic effect appears” value (A549 cells [4]) was “about 0.1 mM”, the “concentration until which no toxic effect appears” value (HepG2 cells) was “about 0.1 mM” and the “viability (leveling off)” value (293T cells) was 70-80%. The “viability (leveling off)” value (VeroE6 cells) was 70-80%, the “dead cells by PI staining” value (A549 cells [5]) was “almost no change” and the tolerability [6] was “no adverse reactions reported”. For the same compound, the “cell viability and viral expression” value (Sindbis virus) was “effective in significantly enhancing cell viability and in depressing viral expression”.
